Results taken from US11963996B2, “Method of treating knee pain” (ORTHOTROPHIX, Inc., priority 2018, dated 2024).
Entries after “also recorded” stand apart in the source; their conditions may differ.

Columns and labels:
[1] = system: subjects with bilateral patello-femoral knee osteoarthritis; assay: Phase 2 randomized double-blind placebo-controlled study of TPX-100: patient-reported outcomes (KOOS, WOMAC); format: in vivo, human; settings: for KOOS ADL (knee function in activities of daily living) improvement over baseline / WOMAC Function subscale improvement: 200 mg intra-articular x4 once weekly, 6 and 12 months; for KOOS ADL (knee function in activities of daily living) improvement over baseline: Index vs Control (placebo) Knees
Protocol: A multicenter, randomized double-blind, placebo-controlled study was designed to investigate the safety, tolerability, pharmacokinetics, and efficacy of TPX-100 administered in four weekly doses in subjects with bilateral patello-femoral knee osteoarthritis. The study was conducted under an open IND (investigational new drug application) at CDER (Center for Drug Evaluation and Research) of the U.S. FDA (The United States Food and Drug Administration) in compliance with GCP (Good Clinical Practice) and ICH (International Conference on Harmonization of Technical Requirements for Registration of Pharmaceuticals for Human Use) guidelines. Eighteen (18) orthopedic, rheumatologic and family practice centers in the U.S. participated in the study.
The study was divided into Part A and Part B. The Part A was designed to evaluate safety of intra-articular (I.A.) administration of TPX-100 at different dosing levels (20, 50, 100, or 200 mg per injection in sequential cohorts) in the subjects with osteoarthritis of the knees and to select a dose for Part B. Part B was to evaluate safety and efficacy of the selected dose of TPX-100.
Subjects in Part A were enrolled in sequential cohorts and randomized to receive 20, 50, 100 or 200 mg of TPX-100 in one knee (Index Knee) and identical placebo in the contralateral (Control) knee. Subjects, sites and sponsor and central MRI readers were blinded as to treatment assignment. A Safety Review Committee (SRC) evaluated safety in each dosing cohort. The SRC assessed safety and determined whether the next higher dosing regimen could be enrolled. All dosing cohorts in Part A were completed and analyzed with regard to safety prior to dose selection and initiation of Part B.
Part A included four (4) intra-articular (I.A.) injections, one per week, in sequential dosing cohorts of 20, 50, 100 and 200 mg TPX-100 versus placebo. Six (6) subjects were enrolled in 20, 50, and 100 mg cohorts, respectively, and nine (9) subjects were enrolled in the 200 mg cohort.
The 200 mg dose was selected for Part B based on safety review and the approval of the SRC. […] Per the Statistical Analysis Plan, these subjects were combined with the nine subjects in the 200 mg cohort of Part A for the efficacy analysis. In total, data from 93 subjects was analyzed for drug efficacy, each of whom received 4 once-weekly injections of TPX-100, 200 mg/dose, in the Index knee and identical placebo in the contralateral knee, as randomly assigned.
In both Part A and Part B, subjects received 4, once-weekly doses of active drug in the knee randomized to active drug in the Index knee and placebo in the contralateral (Control) knee, delivered by the intra-articular route. No other doses of drug or placebo were administered. All subjects visited their respective clinical sites at 3, 6, and 12 months after the first dosing for their safety and efficacy assessments.
On the first dosing day, the randomized subjects were assessed by physical examinations and vital signs. Further, they completed the Knee injury and Osteoarthritis Outcome Score (KOOS), which includes the Western Ontario and McMaster Universities Osteoarthritis Index (WOMAC). The KOOS questionnaire assesses knee-specific activities of daily living, sports and recreation, knee-related quality of life, other symptoms such as stiffness, and knee pain. The KOOS has been used extensively in longitudinal studies of knee osteoarthritis. After assessments were completed, subjects received one intra-articular injection in each knee, with each injection prepared from the vial(s) marked for that knee. One knee received TPX-100, and the contralateral knee received placebo with subject, site, and sponsor blinded to treatment assignment. Subjects were monitored for adverse events during the injections and for a few hours after the injections. Vital signs were also monitored after the injections. […]

[2] = system: alveolar bone; assay: Phase 2 study of alveolar bone formation; format: in vivo, human; settings: drug vs placebo
Protocol: (§1) Based on these safety and bone and dentin formation data, TPX-100 was tested in two Phase 2 studies for alveolar bone and dentin formation activities, respectively.

[3] = system: defects in human molar; assay: Phase 2 study of dentin formation in defects in human molar; format: in vivo; settings: both Phase 2 studies
Protocol: as §1

[4] = 200 mg IA x4, Index vs Control Knees, 12 months

“TPX-100: synthetic peptide consisting of 23 amino acids, TDLQERGDNDISPFSGDGQPFKD, derived from human Matrix Extracellular Phosphoglycoprotein (MEPE)” was tested, and the “KOOS Sports and Recreation subscale improvement” value ([1]; 200 mg IA x4, Index vs Control Knees, 6 months) was “clinically meaningful and statistically significant improvement”, the “KOOS Knee-related QOL subscale improvement” value [1, 4] was “clinically meaningful and statistically significant improvement” and the “KOOS Pain subscale improvement” value [1, 4] was “only a statistical trend (p<0.09) of improvement; also recorded: clinically meaningful improvement in Index Knees as compared to Control Knees at 12 months, with a trend towards statistical significance (p<0.09)”. The “Pain Frequency (KOOS Pain question 1)” value [1, 4] was “statistically significant improvement in Index Knees as compared to Control Knees (p<0.05); also recorded: significantly reduced (p<0.05)”, the “Pain going up or down stairs (KOOS Pain question)” value [1, 4] was “statistically significant improvement in Index Knees as compared to Control Knees (p<0.05); also recorded: significantly improved (p<0.05)” and the “WOMAC Pain domain improvement” value [1, 4] was “clinically meaningful improvement in Index Knees at 12 months compared with Control knees, although the difference did not reach statistical significance”. The “KOOS ADL (knee function in activities of daily living) improvement over baseline” value [1] was “clinically meaningful and statistically significant (p<0.05) improvements”, the “KOOS ADL (knee function in activities of daily living) improvement over baseline” value ([1]; listed as peptide of SEQ ID No. 1) was “clinically meaningful and statistically significant (p=0.008) improvement” and the “WOMAC Function subscale improvement” value ([1]; Index vs Control Knees) was “same robust improvement in Index Knees as compared to Control Knees”. For the same substance, the “WOMAC Function subscale improvement” value ([1]; Index vs Control Knees, listed as peptide of SEQ ID No. 1) was “clinically meaningful and statistically significant (p=0.008) improvement”, the “WOMAC Total score improvement” value ([1]; Index vs Control Knees, 6 or 12 months, or both) was “significant improvements in favor of Index knees” and the “Decrease in use of analgesics by participants” value ([1]; overall, over the 12-month study period) was 62.5%. The “Pain frequency in responders, baseline to 12 months” value ([1]; responders to treatment, 12 months) was “decreased from daily pain at baseline to semi-monthly pain at 12 months”, the “Pain frequency in responders, baseline to 12 months” value ([1]; responders to treatment, 12 months, listed as peptide of SEQ ID No. 1) was “semi-weekly” and the “Improvement of pain frequency score in responder group” value ([1]; responders to treatment, baseline score 3 (daily), at 12 months) was “approximately 1.5 points”. The Alveolar bone formation [2] was “did not show a difference between drug vs. placebo-exposed groups” and the “Tolerability in two Phase 2 studies (alveolar bone, dentin)” value [3] was “well tolerated in both studies”.
